Assay results published in US10344034B2, “Pyrazolopyrimidone or Pyrrolotriazone derivatives, method of preparing same, and pharmaceutical applications thereof” (Shanghai Hengrui Pharmaceutical Co., Ltd., priority 2013, dated 2019).
Read-outs that look alike come from different tables or passages of the source.

Assay: Beagle pharmacokinetics assay
Format: in vivo, beagles
Details: for AUC: read-out: Area under curve AUC; for half-life: read-out: Half-life T1/2 (converted); for MRT: read-out: Residence time MRT
Description: Test Example 6. Beagle Pharmacokinetics Assay of Example 11 of the Present Invention
Beagles were used as test animals. The plasma concentrations at various times were determined by LC/MS/MS after intragastric administration of the compound of Example 11, and intravenous administration of the compound of Example 11 to beagles. The pharmacokinetic behavior of the present compound in beagles was studied, and the pharmacokinetic features were evaluated.
Eight (8) healthy beagles (half female and half male) were evenly designated into 2 groups. The animals were purchased from SuzhouXishan Zhongke Laboratory Animal Corp. Ltd.
An appropriate amount of sample was weighed, and added with 0.5% CMC-Na to form a 1.0 mg/ml suspension upon ultrasonic treatment;
Appropriate amounts of drugs were weighed, and dissolved with 5 ml DMSO and 5 ml of Tween 80. Saline solution was added to the final volume.
Eight (8) healthy beagles (half female and half male) were evenly designated into 2 groups, and administered by oral gavage or intravenous injection (i.v.) (oral gavage at a dosage of 5 mg/kg with an administration volume of 5 ml/kg, and i.v. at a dosage of 2 mg/kg with an administration volume of 2 ml/kg) after fasting overnight.
1.0 ml of blood was sampled from the foreleg vein before, and 0.25, 0.5, 1, 2, 4, 6, 8, 12, and 24 hours after oral administration, collected in a heparinized test tube, and centrifuged at 3500 rpm for 10 minutes to separate the plasma, which was stored at −20° C. The animals were allowed access to feed 2 hours after administration. Blood was sampled before, and 5 minutes, 0.25, 0.5, 1, 2, 4, 6, 8, 12, and 24 hours after intravenous administration, and treated the same as above. The content of the test compound in the plasma of beagles after administration of the compound by oral gavage and intravenous injection was determined by LC/MS/MS.

[1] = both sexes, dog, plasma, iv, i.v. 2 mg/kg
[2] = both sexes, dog, plasma, oral 5 mg/kg

For `CONC(=O)Nc1ccc(-n2nc3c(c2CN(C)C)c(=O)n(-c2ccc(OC)nn2)c(=O)n3Cc2c(F)cccc2F)cc1` [Example 11, 1-(4-(7-(2,6-difluorobenzyl)-3-((dimethylamino)methyl)-5-(6-methoxypyridazin-3-yl)-4,6-dioxo-4,5,6,7-tetrahydro-2H-pyrazolo[3,4-d]pyrimidin-2-yl)phenyl)-3-methoxyurea], the AUC [1] was 2300 ± 213 ng·h/mL, the half-life [1] was 3.34 ± 0.4 h and the MRT [1] was 4.02 ± 0.5 h. It also gave a Vd/F (both sexes, dog, plasma, oral 5 mg/kg, read-out: Apparent volume of distribution Vz/F) of 7.25 ± 4.37 L/kg, an AUC [2] of 5940 ± 1340 ng·h/mL and a CL/F (both sexes, dog, plasma, oral 5 mg/kg, read-out: Clearance rate CL/F) of 14.7 ± 4.2 mL/min/kg. The half-life [2] was 5.37 ± 1.52 h, the Cmax (both sexes, dog, plasma, oral 5 mg/kg, read-out: Plasma concentration Cmax) was 1090 ± 350 ng/mL and the MRT [2] was 6.4 ± 2.82 h. The “Apparent volume of distribution Vz/F” value (i.v. 2 mg/kg) was 4.235 ± 0.706 L/kg and the “Clearance rate CL/F” value (i.v. 2 mg/kg) was 14.6 ± 1.3 mL/min/kg.
